{"source": "patent US20240376153A1", "about": "“CNP CYCLIC PEPTIDE, AND MEDICINE, EXTERNAL PREPARATION AND COSMETIC EACH CONTAINING SAID CYCLIC PEPTIDE” (Igisu Co., Ltd., priority 2015, published 2024)", "key": {"[1]": {"tested_on": "affected site of psoriasis", "assay": "Effect of C-ring / CNP gel formulation on psoriasis", "format": "in vivo, human", "details": "psoriasis patient P6; after 3 days from the application", "from_the_text": "Followings are the summary of the therapeutic effects for psoriasis cases. As described above, the C-ring gel formulation was applied to the affected site of psoriasis, and changes in symptoms before and after the application were observed. When possible, as a comparative example, the CNP gel formulation described above was applied onto another affected site of the same subject where the C-ring gel formulation had not been applied, and changes in symptoms before and after the application were observed. Examination result is given in tables below with subjects' age, sex and symptoms, and prescription for the subjects."}, "[2]": {"tested_on": "normal subjects who have symptoms of lip roughness", "assay": "Lip mucosal condition after application of C-ring gel formulation", "format": "in vivo, human", "details": "lip roughness (cases I1-I5); 1 μM, 1 application", "from_the_text": "To normal subjects who have symptoms of lip roughness, the C-ring gel formulation was applied and changes in lip mucosal conditions were observed and summarized in the following table. Changes in the mucosal condition were judged based on based on cenesthesic evaluation by the subject and objective observation by the inventor as a physician."}, "[3]": {"tested_on": "nasal cavity, the affected site", "assay": "Effect on nose of cyclic peptides in which amino acid was substituted", "details": "for irritation upon nasal application: nasal application once/day", "protocol": "The obtained cyclic peptide was combined with purified water at 1, 5, 30, 100, 500 μg/ml and applied to the affected site. Formulations A to E in the tables refers to the cyclic peptide of 1, 5, 30, 100, 500 μg/ml, respectively."}}, "note": "Entries after “also recorded” stand apart in the source; their conditions may differ. Positions of bridges follow the written chain, without caps; N, C: chain ends. Residues, ends and D or L forms follow the SMILES beside them. No end group written: not given here."}
{"molecule": "Gly-Leu-Ser-Lys-Gly-Cys-Phe-Gly-Leu-Lys-Leu-Asp-Arg-Ile-Gly-Ser-Met-Ser-Gly-Leu-Gly-Cys (GLSKGCFGLKLDRIGSMSGLGC; disulfide 6-22; listed as Homo sapiens) [CNP, human wild-type C-type natriuretic peptide (American Peptide Company)]", "values": [{"measurement": "Results of two-sided application on lower thighs (FIG. 1)", "setting": "[1]", "result": "scales became inconspicuous but still remains, and erythema and infiltration were improved only a little"}, {"measurement": "Post-application Symptoms", "setting": "[2]", "result": "remained on corner of mouth."}]}
{"molecule": "CC[C@H](C)[C@@H]1NC(=O)[C@H](CCCNC(=N)N)NC(=O)[C@H](CC(=O)O)NC(=O)[C@H](CC(C)C)NC(=O)[C@H](CCCCN)NC(=O)[C@H](CC(C)C)NC(=O)CNC(=O)[C@H](Cc2ccccc2)NC(=O)[C@@H](N)CSSC[C@@H](C(=O)O)NC(=O)CNC(=O)[C@H](CC(C)C)NC(=O)CNC(=O)[C@H](CO)NC(=O)[C@H](CCSC)NC(=O)[C@H](C)NC(=O)CNC1=O", "note": "[SEQ ID NO: 11] (H-CFGLKLDRIGAMSGLGC-OH; disulfide 1-17; N-terminus and C-terminus assumed)", "values": [{"measurement": "irritation upon nasal application", "setting": "[3]; Formulation C = 30 μg/ml", "result": "There was no irritation upon nasal application."}]}
{"molecule": "SEEQ ID NO: 3 (CFGLKLDRIGSMSGLGC; disulfide 1-17)", "values": [{"measurement": "Post-treatment diagnostic skin impression", "setting": "[3]; nasal application for comparison of right and left in one subject, Formulation A = 1 μg/ml, once/day", "result": "After 3 min, nasal discharge did not stop; also recorded: After 2 min, nose was not clear"}]}
{"molecule": "CC[C@H](C)[C@@H]1NC(=O)CNC(=O)[C@H](CO)NC(=O)[C@H](CCSC)NC(=O)[C@H]([C@@H](C)O)NC(=O)CNC(=O)[C@H]([C@@H](C)CC)NC(=O)[C@H](CCCNC(=N)N)NC(=O)[C@H](CC(=O)O)NC(=O)[C@H](CCSC)NC(=O)[C@H](CCCCN)NC(=O)[C@H](CC(C)C)NC(=O)CNC(=O)[C@H](Cc2ccccc2)NC(=O)[C@@H](N)CSSC[C@@H](C(=O)O)NC(=O)CNC1=O", "note": "[SEQ ID NO: 52] (H-CFGLKMDRIGTMSGIGC-OH; disulfide 1-17; N-terminus and C-terminus assumed)", "values": [{"measurement": "irritation upon nasal application", "setting": "[3]; Formulation C = 30 μg/ml", "result": "clear. There was no irritation upon nasal application."}]}
{"molecule": "CC[C@H](C)[C@@H]1NC(=O)[C@H](CCCNC(=N)N)NC(=O)[C@H](CC(=O)O)NC(=O)[C@H](CCSC)NC(=O)[C@H](CCCCN)NC(=O)[C@H](CC(C)C)NC(=O)[C@H](C)NC(=O)[C@H](Cc2ccccc2)NC(=O)[C@@H](N)CSSC[C@@H](C(=O)O)NC(=O)CNC(=O)[C@H](CC(C)C)NC(=O)CNC(=O)[C@H](CO)NC(=O)[C@H](CCSC)NC(=O)[C@H](CO)NC(=O)CNC1=O", "note": "[SEQ ID NO. 32] (H-CFALKMDRIGSMSGLGC-OH; disulfide 1-17; N-terminus and C-terminus assumed)", "values": [{"measurement": "irritation upon nasal application", "setting": "[3]; Formulation C = 30 μg/ml", "result": "There was no irritation upon nasal application."}]}
{"molecule": "CC[C@H](C)[C@@H]1NC(=O)CNC(=O)[C@H]([C@@H](C)O)NC(=O)[C@H](CCSC)NC(=O)[C@H](CO)NC(=O)CNC(=O)[C@H]([C@@H](C)CC)NC(=O)[C@H](CCCNC(=N)N)NC(=O)[C@H](CC(=O)O)NC(=O)[C@H](CCSC)NC(=O)[C@H](CCCCN)NC(=O)[C@H](CC(C)C)NC(=O)CNC(=O)[C@H](Cc2ccccc2)NC(=O)[C@@H](N)CSSC[C@@H](C(=O)O)NC(=O)CNC1=O", "note": "[SEQ ID NO: 53] (H-CFGLKMDRIGSMTGIGC-OH; disulfide 1-17; N-terminus and C-terminus assumed)", "values": [{"measurement": "irritation upon nasal application", "setting": "[3]; Formulation C = 30 μg/ml", "result": "upon blowing. There was no irritation upon nasal"}]}
{"molecule": "CC[C@H](C)[C@@H]1NC(=O)[C@H](CCCNC(=N)N)NC(=O)[C@H](CC(=O)O)NC(=O)[C@H](CC(C)C)NC(=O)[C@H](CCCCN)NC(=O)[C@H](CC(C)C)NC(=O)[C@H](C)NC(=O)[C@H](Cc2ccccc2)NC(=O)[C@@H](N)CSSC[C@@H](C(=O)O)NC(=O)CNC(=O)[C@H](CC(C)C)NC(=O)CNC(=O)[C@H](CO)NC(=O)[C@H](CCSC)NC(=O)[C@H]([C@@H](C)O)NC(=O)CNC1=O", "note": "[SEQ ID NO: 33] (H-CFALKLDRIGTMSGLGC-OH; disulfide 1-17; N-terminus and C-terminus assumed)", "values": [{"measurement": "irritation upon nasal application", "setting": "[3]; Formulation C = 30 μg/ml", "result": "There was no irritation upon nasal application."}]}
{"molecule": "CC[C@H](C)[C@@H]1NC(=O)[C@H](CCCNC(=N)N)NC(=O)[C@H](CC(=O)O)NC(=O)[C@H](CC(C)C)NC(=O)[C@H](CCCCN)NC(=O)[C@H](CC(C)C)NC(=O)CNC(=O)[C@H](Cc2ccccc2)NC(=O)[C@@H](N)CSSC[C@@H](C(=O)O)NC(=O)CNC(=O)[C@H](Cc2ccccc2)NC(=O)CNC(=O)[C@H](CO)NC(=O)[C@H](CCSC)NC(=O)[C@H](CO)NC(=O)CNC1=O", "note": "[SEQ ID NO: 21] (H-CFGLKLDRIGSMSGFGC-OH; disulfide 1-17; N-terminus and C-terminus assumed)", "values": [{"measurement": "irritation upon nasal application", "setting": "[3]; Formulation C = 30 μg/ml", "result": "upon blowing. There was no irritation upon nasal"}]}
{"molecule": "CC[C@H](C)[C@@H]1NC(=O)CNC(=O)[C@H](CO)NC(=O)[C@H](CCSC)NC(=O)[C@H]([C@@H](C)O)NC(=O)CNC(=O)[C@H]([C@@H](C)CC)NC(=O)[C@H](CCCNC(=N)N)NC(=O)[C@H](CC(=O)O)NC(=O)[C@H](CCSC)NC(=O)[C@H](CCCCN)NC(=O)[C@H](CC(C)C)NC(=O)[C@H](C)NC(=O)[C@H](Cc2ccccc2)NC(=O)[C@@H](N)CSSC[C@@H](C(=O)O)NC(=O)CNC1=O", "note": "[SEQ ID NO: 58] (H-CFALKMDRIGTMSGIGC-OH; disulfide 1-17; N-terminus and C-terminus assumed)", "values": [{"measurement": "irritation upon nasal application", "setting": "[3]; Formulation B = 5 μg/ml", "result": "There was no irritation upon nasal application."}]}
{"molecule": "CC[C@H](C)[C@@H]1NC(=O)[C@H](CCCNC(=N)N)NC(=O)[C@H](CC(=O)O)NC(=O)[C@H](CC(C)C)NC(=O)[C@H](CCCCN)NC(=O)[C@H](CC(C)C)NC(=O)CNC(=O)[C@H](Cc2ccccc2)NC(=O)[C@@H](N)CSSC[C@@H](C(=O)O)NC(=O)CNC(=O)[C@H](CC(C)C)NC(=O)CNC(=O)[C@H]([C@@H](C)O)NC(=O)[C@H](CCSC)NC(=O)[C@H]([C@@H](C)O)NC(=O)CNC1=O", "note": "[SEQ ID NO: 39] (H-CFGLKLDRIGTMTGLGC-OH; disulfide 1-17; N-terminus and C-terminus assumed)", "values": [{"measurement": "irritation upon nasal application", "setting": "[3]; Formulation C = 30 μg/ml", "result": "upon blowing. There was no irritation upon nasal"}]}
{"molecule": "CC[C@H](C)[C@@H]1NC(=O)[C@H](CCCNC(=N)N)NC(=O)[C@H](CC(=O)O)NC(=O)[C@H](CC(C)C)NC(=O)[C@H](CCCCN)NC(=O)[C@H](CC(C)C)NC(=O)CNC(=O)[C@H](Cc2ccccc2)NC(=O)[C@@H](N)CSSC[C@@H](C(=O)O)NC(=O)CNC(=O)[C@H](CCSC)NC(=O)CNC(=O)[C@H](CO)NC(=O)[C@H](CCSC)NC(=O)[C@H](CO)NC(=O)CNC1=O", "note": "[SEQ ID NO: 20] (H-CFGLKLDRIGSMSGMGC-OH; disulfide 1-17; N-terminus and C-terminus assumed)", "values": [{"measurement": "irritation upon nasal application", "setting": "[3]; Formulation C = 30 μg/ml", "result": "There was no irritation upon nasal application."}]}
{"molecule": "CC[C@H](C)[C@@H]1NC(=O)CNC(=O)[C@H]([C@@H](C)O)NC(=O)[C@H](CCSC)NC(=O)[C@H](CO)NC(=O)CNC(=O)[C@H]([C@@H](C)CC)NC(=O)[C@H](CCCNC(=N)N)NC(=O)[C@H](CC(=O)O)NC(=O)[C@H](CC(C)C)NC(=O)[C@H](CCCCN)NC(=O)[C@H](CC(C)C)NC(=O)CNC(=O)[C@H](Cc2ccccc2)NC(=O)[C@@H](N)CSSC[C@@H](C(=O)O)NC(=O)CNC1=O", "note": "[SEQ ID NO: 41] (H-CFGLKLDRIGSMTGIGC-OH; disulfide 1-17; N-terminus and C-terminus assumed)", "values": [{"measurement": "irritation upon nasal application", "setting": "[3]; Formulation C = 30 μg/ml", "result": "There was no irritation upon nasal application."}]}
{"molecule": "CC[C@H](C)[C@@H]1NC(=O)CNC(=O)[C@H]([C@@H](C)O)NC(=O)[C@H](CCSC)NC(=O)[C@H](CO)NC(=O)CNC(=O)[C@H]([C@@H](C)CC)NC(=O)[C@H](CCCNC(=N)N)NC(=O)[C@H](CC(=O)O)NC(=O)[C@H](CCSC)NC(=O)[C@H](CCCCN)NC(=O)[C@H](CC(C)C)NC(=O)[C@H](C)NC(=O)[C@H](Cc2ccccc2)NC(=O)[C@@H](N)CSSC[C@@H](C(=O)O)NC(=O)CNC1=O", "note": "[SEQ ID NO: 59] (H-CFALKMDRIGSMTGIGC-OH; disulfide 1-17; N-terminus and C-terminus assumed)", "values": [{"measurement": "irritation upon nasal application", "setting": "[3]; Formulation D = 100 μg/ml", "result": "upon blowing. There was no irritation upon nasal"}]}
{"molecule": "CC[C@H](C)[C@@H]1NC(=O)[C@H](CCCNC(=N)N)NC(=O)[C@H](CC(=O)O)NC(=O)[C@H](CC(C)C)NC(=O)[C@H](CCCCN)NC(=O)[C@H](CC(C)C)NC(=O)CNC(=O)[C@H](Cc2ccccc2)NC(=O)[C@@H](N)CSSC[C@@H](C(=O)O)NC(=O)CNC(=O)[C@H](C(C)C)NC(=O)CNC(=O)[C@H](CO)NC(=O)[C@H](CCSC)NC(=O)[C@H](CO)NC(=O)CNC1=O", "note": "[SEQ ID NO: 18] (H-CFGLKLDRIGSMSGVGC-OH; disulfide 1-17; N-terminus and C-terminus assumed)", "values": [{"measurement": "irritation upon nasal application", "setting": "[3]; Formulation C = 30 μg/ml", "result": "There was no irritation upon nasal application."}]}
